Legend:
[1] = system: primary brain cell cultures; assay: NAD/NADH cycling assay; type: cell-based, mouse; conditions: after 30 min in the presence of the compound
Protocol: Cycling assays for nicotinamide adenine dinucleotides was performed as described [Yang J, et al, Lactate promotes plasticity gene expression by potentiating NMDA signaling in neurons. Proc Natl Acad Sci USA. 2014. 111(33):12228-33]. Briefly, cells were rinsed two times with ice-cold PBS, harvested in 400 μL ice-cold carbonate-bicarbonate buffer (100 mM Na2CO3 and 20 mM NaHCO3 containing 10 mM nicotinamide to inhibit NADase), and frozen at −80° C. Cell membranes were lysed by heat shock in a 37° C. water bath and immediately chilled on ice. Extracts were centrifuged at 12,000×g for 30 min at 4° C. and half of the supernatant was heated at 60° C. for 30 min to denature NAD. Twenty-five microliters of the heated extract (containing NADH only), 100 μL of the unheated extract (containing NAD and NADH), and 50 μL of standards of known NADH (Roche) concentrations (ranging from 0.0625 to 1 μM) dissolved in carbonate bicarbonate buffer were loaded onto a 96-well microplate along with blanks (carbonate-bicarbonate buffer). Volumes were adjusted to 100 μL with carbonate-bicarbonate buffer and 150 μL of a reaction buffer was added into each well. […] The absorbance was followed spectrophotometrically at 560 nm every 15 s over a 5-min period (Safire 2; Tecan). Blank values were subtracted from all samples and NAD amounts were calculated by subtracting NADH values from total NAD+NADH values.

[2] = system: cortical neurons with MPP+ lesion; assay: MPP+ induced ROS in cortical neurons (DCFDA); type: cell-based, mouse; conditions: 0.5 and 1 μM, 8 h MPP+ lesion
Protocol: Mouse cortical neurons were prepared as described. At DIV8 cells were treated with the test and control MK801 compounds for 1 h, before the addition of MPP+(Sigma, D048) at a final concentration of 100-200 μM. The experiment was carried out with n=6 technical replicates per condition, vehicle and MPP+ alone controls were included. After 8 h determination of ROS was conducted and after 24 h of MPP+ lesion on DIV9 cells were subject to the apoptosis measurement. Apoptosis was determined using YO-PRO™-1 Iodide (Invitrogen; Y3603). Part of supernatant of the cultivated cells was removed and 10 μL of a 50 μM YO-PRO 1 solution in PBS is added to the remaining 90 μL to result in a final concentration of 5 μM YO-PRO 1 in well. Incubation for 15 min in the incubator at 37° C. was performed (light protected) followed by discarding the supernatant. 140 μL PBS was added to each well and the fluorescence was measured using a plate-reader (Cytation 5, BioTek) at excitation wavelength 485 nm to Emission wavelength 535 nm.
ROS generation was measured with Abcam's DCFDA-Cellular Reactive Oxygen Species Detection Assay (ab 113851). […] Cells were then incubated with the test items and lesion for 8 h and thereafter the fluorescent signal was measured at 485 nm/535 nm (Cytation 5, BioTek).

IL-6 = assay: LPS stimulation of BV-2 microglia: IL-6; type: cell-based, murine; conditions: between 0.3 and 3 μM, BV2, LPS 500 ng/ml, 24 h
Protocol: The murine microglial cell line BV-2 was grown in DMEM medium supplemented with 10% FCS, 1% penicillin/streptomycin and 2 mM L-glutamine (culture medium). For LPS stimulation assay, 10000 BV-2 cells per well (uncoated 96 well plates) were plated and after 24 hours, medium was changed to serum-free treatment medium (DMEM, 2 mM L-glutamine) and cells were maintained in treatment medium for the remaining culture period. 1 h after changing cells to treatment medium, the test items were added 1 hour before LPS stimulation (Sigma-Aldrich; L6529; 1 mg/ml stock in ddH2O, final concentration in well: 500 ng/ml (dilutions in medium)). Cells treated with vehicle, cells treated with LPS alone, as well as cells treated with LPS plus reference dexamethasone at 10 μM item served as controls.
Following 24 h of stimulation, cell supernatants were collected for the NO, and cytokine measurements. Levels of 2 cytokines (TNF-α, IL-6) were measured by an immunosorbent assay (U-PLEX Custom […] Cytokine, Mesoscale Discovery) according to the instructions of the manufacturer and evaluated in comparison to calibration curves provided in the kit. […] Absorbance was measured at 570 nm. Nitrosative stress was evaluated in the study samples in comparison to a NaNO2 standard curve. […]

O=c1cc(-c2ccc(CCCC[P+](c3ccccc3)(c3ccccc3)c3ccccc3)cc2)oc2c(O)c(O)ccc12 [SND118, 4-[4-(7,8-dihydroxy-4-oxo-chromen-2-yl)phenyl]butyltriphenylphosphonium bromide]
production of NADH (NAD/NADH ratio) [1]: increased production of ATP and NADH
level of ROS induced by MPP+ (DCFDA) [2]: decreased the level of ROS
level of IL-6 in response to LPS stimulation (IL-6): significantly decreased

From US20220411448A1, “CHROMENE-4-ONE DERIVATIVES AS BRAIN-DERIVED NEUROTROPHIC FACTOR (BDNF) MIMETICS” (FLORATEK PHARMA AG, priority 2019, published 2022)
